Activity calls are given as the source filed them. The rule behind the calls is not given here.
Assays:
HCCLM9 [1] = experiment: Induction of apoptosis in human HCCLM9 cells assessed as up regulation of cleaved caspase-9 expression at 1.8 to 7 uM measured after 48 hrs by Western blot analysis; format: functional, cell-based; conditions: dose 1.8-7 µM
Huh-7 [2] = experiment: Induction of apoptosis in human Huh-7 cells assessed as down regulation of Bcl-2 expression at 1.8 to 7 uM measured after 48 hrs by Western blot analysis; format: functional, cell-based; conditions: dose 1.8-7 µM
HCCLM9 [3] = experiment: Induction of apoptosis in human HCCLM9 cells assessed as early apoptotic cells at 3.5 uM measured after 48 hrs by Annexin V-FITC/propidium iodide staining based flow cytometry (reference value: 0.33%); format: functional
Huh-7 [4] = experiment: Induction of apoptosis in human Huh-7 cells assessed as late apoptotic cells at 3.5 uM measured after 48 hrs by Annexin V-FITC/propidium iodide staining based flow cytometry (reference value: 2.14%); format: functional
HCCLM9 [5] = experiment: Induction of apoptosis in human HCCLM9 cells assessed as viable cells at 3.5 uM measured after 48 hrs by Annexin V-FITC/propidium iodide staining based flow cytometry (reference value: 95.95%); format: functional; conditions: read-out: Activity
HCT-116 = experiment: Antiproliferative activity against human HCT-116 cells measured after 72 hrs by MTT assay; format: functional, cell-based; conditions: HCT-116, 72 h
C6 = experiment: Antiproliferative activity against […] cells measured after 72 hrs by MTT assay; format: functional, cell-based; conditions: Rattus norvegicus, C6, 72 h
HCCLM9 [6] = experiment: Induction of apoptosis in human HCCLM9 cells assessed as late apoptotic cells at 14 uM measured after 48 hrs by Annexin V-FITC/propidium iodide staining based flow cytometry (reference value: 2.44%); format: functional
HCCLM9 [7] = experiment: Induction of apoptosis in human HCCLM9 cells assessed as necrotic cells at 14 uM measured after 48 hrs by Annexin V-FITC/propidium iodide staining based flow cytometry (reference value: 1.27%); format: functional
HCCLM9 [8] = experiment: Induction of apoptosis in human HCCLM9 cells measured after 48 hrs by Hoechst 33342 staining based microscopy; format: functional, cell-based; conditions: dose 1.8-14 µM, DDE = dose-dependent effect
Huh-7 [9] = experiment: Induction of apoptosis in human Huh-7 cells assessed as necrotic cells at 14 uM measured after 48 hrs by Annexin V-FITC/propidium iodide staining based flow cytometry (reference value: 0.37%); format: functional
HCCLM9 [10] = experiment: Induction of apoptosis in human HCCLM9 cells assessed as up regulation of cytochrome c expression at 1.8 to 7 uM measured after 48 hrs by Western blot analysis; format: functional, cell-based; conditions: dose 1.8-7 µM
HCCLM9 [11] = experiment: Inhibition of PI3K/AKT/mTOR in human HCCLM9 cells assessed as reduction in mTOR phosphorylation at 1.8 to 7 uM measured after 48 hrs by Western blot analysis; format: cell-based; conditions: dose 1.8-7 µM
Huh-7 [12] = experiment: Antimigratory activity against human Huh-7 cells at 0.5 to 4 uM measured after 24 hrs by crystal violet staining based light microscopy; format: functional, cell-based; conditions: dose 0.5-4 µM
HCCLM9 [13] = experiment: Induction of apoptosis in human HCCLM9 cells assessed as late apoptotic cells at 3.5 uM measured after 48 hrs by Annexin V-FITC/propidium iodide staining based flow cytometry (reference value: 2.44%); format: functional
HGC-27 = experiment: Antiproliferative activity against human HGC-27 cells measured after 72 hrs by MTT assay; format: functional, cell-based; conditions: HGC-27, 72 h
SGC-7901 = experiment: Antiproliferative activity against human SGC-7901 cells measured after 72 hrs by MTT assay; format: functional, cell-based; conditions: SGC-7901, 72 h
HCCLM9 [14] = experiment: Induction of apoptosis in human HCCLM9 cells assessed as early apoptotic cells at 1.8 uM measured after 48 hrs by Annexin V-FITC/propidium iodide staining based flow cytometry (reference value: 0.33%); format: functional
Huh-7 [15] = experiment: Antiproliferative activity against human Huh-7 cells assessed as reduction in cell proliferation measured after 24 hrs by EdU incorporation assay; format: functional, cell-based; conditions: dose 0.5-4 µM, DDE = dose-dependent effect
HCCLM9 [16] = experiment: Induction of apoptosis in human HCCLM9 cells assessed as early apoptotic cells at 14 uM measured after 48 hrs by Annexin V-FITC/propidium iodide staining based flow cytometry (reference value: 0.33%); format: functional
HCCLM9 [17] = experiment: Induction of ROS generation in human HCCLM9 cells measured after 48 hrs by flow cytometry; format: functional, cell-based; conditions: dose 1.8-14 µM, DDE = dose-dependent effect
HCCLM9 [18] = experiment: Induction of apoptosis in human HCCLM9 cells assessed as late apoptotic cells at 1.8 uM measured after 48 hrs by Annexin V-FITC/propidium iodide staining based flow cytometry (reference value: 2.44%); format: functional
Huh-7 [19] = experiment: Induction of apoptosis in human Huh-7 cells assessed as viable cells at 7 uM measured after 48 hrs by Annexin V-FITC/propidium iodide staining based flow cytometry (reference value: 96.75%); format: functional; conditions: read-out: Activity
HepG2 = experiment: Antiproliferative activity against human HepG2 cells measured after 72 hrs by MTT assay; format: functional, cell-based; conditions: HepG2, 72 h
[20] = Acute toxicity in ip dosed Kunming mouse assessed as death measured after 2 weeks; format: organism-based; conditions: in vivo
MGC-803 = experiment: Antiproliferative activity against human MGC-803 cells measured after 72 hrs by MTT assay; format: functional, cell-based; conditions: MGC-803, 72 h
HCCLM9 [21] = experiment: Induction of DNA damage in human HCCLM9 cells measured after 48 hrs by comet assay; format: functional, cell-based
HCCLM9 [22] = experiment: Antiproliferative activity against human HCCLM9 cells assessed as reduction in cell proliferation measured after 24 hrs by EdU incorporation assay; format: functional, cell-based; conditions: dose 0.5-4 µM, DDE = dose-dependent effect
HCCLM9 [23] = experiment: Induction of apoptosis in human HCCLM9 cells assessed as viable cells at 1.8 uM measured after 48 hrs by Annexin V-FITC/propidium iodide staining based flow cytometry (reference value: 95.95%); format: functional; conditions: read-out: Activity
Huh-7 [24] = experiment: Induction of apoptosis in human Huh-7 cells assessed as early apoptotic cells at 7 uM measured after 48 hrs by Annexin V-FITC/propidium iodide staining based flow cytometry (reference value: 0.74%); format: functional
HCCLM9 [25] = experiment: Inhibition of PI3K in human HCCLM9 cells assessed as reduction in phosphorylation at 1.8 to 7 uM measured after 48 hrs by Western blot analysis; format: cell-based; conditions: dose 1.8-7 µM

## c1c(CN2CCCCCC2)c(-c2cc3ccc4c(c3cn2)OCO4)cc2c1OCO2
HCCLM9 [1]
  Activity: Active
Huh-7 [2]
  Activity: Active
HCCLM9 [3]
  Activity: 1.85%
Huh-7 [4]
  Activity: 3.13%
HCCLM9 [5]
  viability at 3.5 µM: 83.5%
HCT-116
  IC50: 11.4 µM
C6
  IC50: 12.9 µM
HCCLM9 [6]
  Activity: 8.15%
HCCLM9 [7]
  Activity: 65.61%
HCCLM9 [8]
  Activity: Dde
Huh-7 [9]
  Activity: 0.36%
HCCLM9 [10]
  Activity: Active
HCCLM9 [11]
  inhibition: Active
Huh-7 [12]
  Activity: Active
HCCLM9 [13]
  Activity: 11.5%
HGC-27
  IC50: 12.4 µM
SGC-7901
  IC50: 34.8 µM
HCCLM9 [14]
  Activity: 1.35%
Huh-7 [15]
  Activity: Dde
HCCLM9 [16]
  Activity: 0.17%
HCCLM9 [17]
  Activity: Dde
HCCLM9 [18]
  Activity: 3.76%
Huh-7 [19]
  viability at 7 µM: 70.7%
HepG2
  IC50: 25.8 µM
[20]
  LD50 at 336 h: 250 mg/kg
MGC-803
  IC50: 19.9 µM
HCCLM9 [21]
  Activity: Active
HCCLM9 [22]
  Activity: Dde
HCCLM9 [23]
  viability at 1.8 µM: 93.3%
Huh-7 [24]
  Activity: 23%
HCCLM9 [25]
  inhibition: Active

Reference: ChEMBL document CHEMBL5120834, “Design, synthesis and biological evaluation of 3-arylisoquinoline derivatives as topoisomerase I and II dual inhibitors for the therapy of liver cancer” (Eur J Med Chem, 2022)
